Measured values published in US4450163A, “Process for the preparation of 1,3,7-trialkyl xanthines and di(3,7-dimethylxanthin-1-yl)methane as a medicament” (Societe d'Assistance Technique pour Produits Nestle S.A., priority 1979, dated 1984).

Legend:
[1] = system: ear-swelling in mice in response to antigenic challenge; assay: dermal delayed hypersensitivity test (oxazolone), inhibition of ear-swelling in mice; assay type: in vivo; details: oxazolone sensitized, 150 mg/kg b.w. i.p. at challenge, ear thickness 24 hours after challenge, compared to control animals
Protocol: Immunosuppression of the compound of Example 25 was compared with cyclophosphamide, a known immunosuppressant drug, as an inhibitor of ear-swelling in mice in response to antigenic challenge in a dermal delayed hypersensitivity test at 150 mg/kg body weight.
The test was performed as is described e.g. by G. L. Asherton and W. Ptak in Immunology 15, 405 (1968). Mice were immunized by applying on the abdomen skin 0.1 ml of a 3% oxazolone solution. 7 days after sensitization, they were challenged by painting the same solution on the ear skin. Part of the mice were simultaneously administered i.p. the immunosuppressant drug of Example 25 or cyclophosphamide. The remaining animals served as controls. 24 hours after challenge, the increase in ear thickness was measured. Immunosuppressant activity was expressed in % of inhibition of ear-swelling in drug-administered mice compared to control animals.

[2] = pharmacological studies (immunosuppressant activity, adverse effects); assay type: in vivo; details: in words

SMILES | % inhib. of ear-swelling [1] [%] | immunosuppressant activity [2] | toxic adverse effect [2]
O=P1(N(CCCl)CCCl)NCCCO1 (stereo not shown) [Cyclophosphamide, reference compound] | 73 | – | –
Cn1cnc2c1c(=O)n(Cn1c(=O)c3c(ncn3C)n(C)c1=O)c(=O)n2C [Example 25, di(3,7-dimethylxanthin-1-yl)methane] | 55 | has an immunosuppressant activity | no toxic adverse effect
